Consider 1 molecule from patent publication US20170175161A1, “RAPID DETERMINATION OF BACTERIAL SUSCEPTIBILITY TO AN […] THE POINT OF CARE” (Point of Care Diagnostics, LLC, priority 2014, published 2017).

The test system of this experiment is bacterial infection within the sample (sample 101, e.g. urine). Kind of experiment: assay 200: antibiotic susceptibility of a bacterial infection by ATP bioluminescence. The format is cell-based. Here is the method:
To perform assay 200 to determine antibiotic susceptibility of a bacterial infection within the sample, a second test sample 204 and third test sample 205 may be obtained from sample 101 by applying 50 to 400 μL of first reagent 202 and 50 to 300 μL of culture medium 203 to 1 to 20 μL of sample 101 to create second test sample 204 and to 1 to 20 μL of sample 101 to create third test sample 205. First reagent 202 may include 10 to 100 mM of Tris Acetate as a buffer, 0.0001 to 0.1% of Benzethonium Chloride, and 0.5 to 4 Units/ml of Apyrase. First reagent 202 may cause non-bacterial ATP to be released and removed, in a manner similar to that as described herein. Culture medium 203 may include 50 to 300 μL of Tryptic Soy Broth. Culture medium 203 may be applied to second test sample 204 and third test sample 205 and may promote the growth and robustness of the bacterial population, in a manner similar to that described herein.
First antibiotic 206 may be applied to third test sample 205. In this example, first antibiotic 206 may include 10 to 100 μg of Amoxicillin. Second test sample 204 and the third test sample 205 may then be incubated for ˜40 minutes at 37 degrees Celsius.
After incubation, second reagent 207 (e.g., 100 to 500 μL) may be applied to second test sample 204 and third test sample 205. Second reagent 207 may include 10 to 100 mM of Tris Acetate as a buffer and 2 to 30 mg/L of Luciferase, 2 to 30 mg/L of Luciferin, and 0.1 to 0.5% of Chlorhexidine di-gluconate. […]
A Berthold Junior Luminometer may be used to measure a first bioluminescent signal (and associated strength) from third test sample 205 and a second bioluminescent signal (and associated strength) from second test sample 204 (e.g., based on released ATP, etc.). In a manner similar to that described above, the strength associated with the first bioluminescent signal and/or the strength associated with the second bioluminescent signal may be proportional to the respective quantity and/or concentration of ATP and/or quantity of bacterial cells within third test sample 205 and/or second test sample 204, respectively. […] In this example, the strength of the first bioluminescent signal was measured to be 66,823 RLU's and the strength of the second bioluminescent signal was measured to be 62,535 RLU's. Thus, the quantity of bacteria cells in third test sample 205 was ˜62,000 cfu/ml and the quantity of bacteria cells in the second test sample 204 was ˜67,000 cfu/ml.
In the event that the bacteria, within third test sample 205, are susceptible to first antibiotic 206, the quantity of bacterial cells in third test sample 205 may be less than the quantity of bacterial cells in second test sample 204. […]

Take `CC1(C)S[C@@H]2[C@H](NC(=O)[C@H](N)c3ccc(O)cc3)C(=O)N2[C@H]1C(=O)O` [Amoxicillin]: under “10-100 μg, ΔL compared to second threshold >30% difference”, the “susceptibility of the bacteria to the antibiotic” value is given as “may not be susceptible”. The “strength of the first bioluminescent signal (third test sample 205, with antibiotic)” value (10 to 100 μg antibiotic, incubated ~40 minutes at 37 degrees Celsius, Berthold Junior Luminometer, baseline second test sample 62,535 RLU's) was 66,823 RLU's. Further, the “quantity of bacteria cells in third test sample 205” value (10 to 100 μg antibiotic, ~40 minutes at 37 degrees Celsius, baseline second test sample ~67,000 cfu/ml) is reported as ~62,000 cfu/ml. Also, for the setting “antibiotic-treated vs baseline sample, second threshold >30% difference”, the “ΔL, difference between first and second bioluminescent signal strength” value was found to be 7.5%.
